Measurements as given in EP0198522A1, “Heterocyclic herbicides” (SHELL INTERNATIONALE RESEARCH MAATSCHAPPIJ B.V., priority 1985, dated 1986).

Assays:
Format in all cases: in vivo
[1] = test system: barnyard grass, Echinochloa crusgalli; test: Herbicidal activity, post-emergence soil drench test; details: 10 kg/ha soil drench; assessed visually thirteen days after drenching; 0-9 scale, 0 = growth as untreated control, 9 = death
Procedure: (§1) To evaluate their herbicidal activity, compounds according to the invention were tested using as representative range of plants: maize, Zea mays (Mz); rice, Oryza sativa (R); barnyard grass, Echinochloa crusgalli (BG); oat, Avena sativa (0); linseed, Linum usitatissisum (L); mustard, Sinapsis alba (M); sugar beet, Beta vulgaris (SB) and soya bean, Glycine max (S).
(§2) The tests fall into two categories, pre-emergence and post-emergence. […] The post-emergence tests involved two types of test, viz., soil drench and foliar spray tests. In the soil drench tests the soil in which the seedling plants of the above species were growing was drenched with a liquid formulation containing a compound of the invention, and in the foliar spray tests the seedling plants were sprayed with such a formulation.
(§3) The soil used in the tests was a prepared horticultural loam.
(§4) These acetone solutions were diluted with water and the resulting formulations applied at dosage levels corresponding to 5 kg or 1 kg of active material per hectare in a volume equivalent to 600 litres per hectare in the soil spray and foliar spray test, and at a dosage of level equivalent to 10 kilograms of active material per hectare in a volume equivalent to approximately 3,000 litres per hectare in the soil drench tests.
(§5) In the pre-emexgence tests untreated sown soil and in the post-emergence tests untreated soil bearing seedling plants were used as controls.
(§6) The herbicidal effects of the test compounds were assessed visually twelve days after spraying the foliage and the soil, and thirteen days after drenching the soil and were recorded on a 0-9 scale. A rating 0 indicates growth as untreated control, a rating 9 indicates death. An increase of 1 unit on the linear scale approximates to a 10% increase in the level of effect.

[2] = test system: linseed, Linum usitatissisum; test: as above; details: 10 kg/ha soil drench; assessed visually thirteen days after drenching; 0-9 scale, 0 = growth as untreated control, 9 = death
Procedure: as §1, §2, §3, §4, §5, §6

maize, Zea mays [3] = test: as above; details: 10 kg/ha soil drench; assessed visually thirteen days after drenching; 0-9 scale, 0 = growth as untreated control, 9 = death
Procedure: as §1, §2, §3, §4, §5, §6

mustard, Sinapsis alba [4] = test: as above; details: 10 kg/ha soil drench; assessed visually thirteen days after drenching; 0-9 scale, 0 = growth as untreated control, 9 = death
Procedure: as §1, §2, §3, §4, §5, §6

oat, Avena sativa [5] = test: as above; details: 10 kg/ha soil drench; assessed visually thirteen days after drenching; 0-9 scale, 0 = growth as untreated control, 9 = death
Procedure: as §1, §2, §3, §4, §5, §6

rice, Oryza sativa [6] = test: as above; details: 10 kg/ha soil drench; assessed visually thirteen days after drenching; 0-9 scale, 0 = growth as untreated control, 9 = death
Procedure: as §1, §2, §3, §4, §5, §6

soya bean, Glycine max [7] = test: as above; details: 10 kg/ha soil drench; assessed visually thirteen days after drenching; 0-9 scale, 0 = growth as untreated control, 9 = death
Procedure: as §1, §2, §3, §4, §5, §6

[8] = test system: sugar beet, Beta vulgaris; test: as above; details: 10 kg/ha soil drench; assessed visually thirteen days after drenching; 0-9 scale, 0 = growth as untreated control, 9 = death
Procedure: as §1, §2, §3, §4, §5, §6

[9] = test system: barnyard grass, Echinochloa crusgalli; test: Herbicidal activity, post-emergence foliar spray test; details: assessed visually twelve days after spraying, 0-9 scale, 0 = growth as untreated control, 9 = death
Procedure: as §1, §2, §3, §4, §5, §6

[10] = test system: linseed, Linum usitatissisum; test: as above; details: assessed visually twelve days after spraying, 0-9 scale, 0 = growth as untreated control, 9 = death
Procedure: as §1, §2, §3, §4, §5, §6

maize, Zea mays [11] = test: as above; details: assessed visually twelve days after spraying, 0-9 scale, 0 = growth as untreated control, 9 = death
Procedure: as §1, §2, §3, §4, §5, §6

mustard, Sinapsis alba [12] = test: as above; details: assessed visually twelve days after spraying, 0-9 scale, 0 = growth as untreated control, 9 = death
Procedure: as §1, §2, §3, §4, §5, §6

oat, Avena sativa [13] = test: as above; details: assessed visually twelve days after spraying, 0-9 scale, 0 = growth as untreated control, 9 = death
Procedure: as §1, §2, §3, §4, §5, §6

rice, Oryza sativa [14] = test: as above; details: assessed visually twelve days after spraying, 0-9 scale, 0 = growth as untreated control, 9 = death
Procedure: as §1, §2, §3, §4, §5, §6

soya bean, Glycine max [15] = test: as above; details: assessed visually twelve days after spraying, 0-9 scale, 0 = growth as untreated control, 9 = death
Procedure: as §1, §2, §3, §4, §5, §6

[16] = test system: sugar beet, Beta vulgaris; test: as above; details: assessed visually twelve days after spraying, 0-9 scale, 0 = growth as untreated control, 9 = death
Procedure: as §1, §2, §3, §4, §5, §6

[17] = test system: barnyard grass, Echinochloa crusgalli; test: Herbicidal activity, pre-emergence test (soil spray); details: assessed visually twelve days after spraying, 0-9 scale, 0 = growth as untreated control, 9 = death
Procedure: as §1, §2, §3, §4, §5, §6

[18] = test system: linseed, Linum usitatissisum; test: as above; details: assessed visually twelve days after spraying, 0-9 scale, 0 = growth as untreated control, 9 = death
Procedure: as §1, §2, §3, §4, §5, §6

maize, Zea mays [19] = test: as above; details: assessed visually twelve days after spraying, 0-9 scale, 0 = growth as untreated control, 9 = death
Procedure: as §1, §2, §3, §4, §5, §6

mustard, Sinapsis alba [20] = test: as above; details: assessed visually twelve days after spraying, 0-9 scale, 0 = growth as untreated control, 9 = death
Procedure: as §1, §2, §3, §4, §5, §6

oat, Avena sativa [21] = test: as above; details: assessed visually twelve days after spraying, 0-9 scale, 0 = growth as untreated control, 9 = death
Procedure: as §1, §2, §3, §4, §5, §6

rice, Oryza sativa [22] = test: as above; details: assessed visually twelve days after spraying, 0-9 scale, 0 = growth as untreated control, 9 = death
Procedure: as §1, §2, §3, §4, §5, §6

soya bean, Glycine max [23] = test: as above; details: assessed visually twelve days after spraying, 0-9 scale, 0 = growth as untreated control, 9 = death
Procedure: as §1, §2, §3, §4, §5, §6

[24] = test system: sugar beet, Beta vulgaris; test: as above; details: assessed visually twelve days after spraying, 0-9 scale, 0 = growth as untreated control, 9 = death
Procedure: as §1, §2, §3, §4, §5, §6

## COC(=O)c1cc2cc3c(cc2nc1C1=NC(C)(C(C)C)C(=O)N1C(C)=O)OCO3 (stereo not drawn) [Example 3, Methyl-2-(1-acetyl-4-isopropyl-4-methyl-5-oxo-2-imidazolin-2-yl)-[1,3]-dioxolo[4,5-g] quinoline-3-carboxylate]
[1]
  Soil drench 10/kg/ha BG (herbicidal effect rating): 7
[2]
  Soil drench 10/kg/ha L (herbicidal effect rating): 6
maize, Zea mays [3]
  Soil drench 10/kg/ha Mz (herbicidal effect rating): 5
mustard, Sinapsis alba [4]
  Soil drench 10/kg/ha M (herbicidal effect rating): 7
oat, Avena sativa [5]
  Soil drench 10/kg/ha O (herbicidal effect rating): 6
rice, Oryza sativa [6]
  Soil drench 10/kg/ha R (herbicidal effect rating): 5
Soya bean, Glycine max [7]
  Soil drench 10/kg/ha S (herbicidal effect rating): 0
[8]
  Soil drench 10/kg/ha SB (herbicidal effect rating): 8
[9]; Dosage 1 kg/ha
  Foliar spray BG (herbicidal effect rating): 5
[9]; Dosage 5 kg/ha
  Foliar spray BG (herbicidal effect rating): 7
[10]; Dosage 1 kg/ha
  Foliar spray L (herbicidal effect rating): 5
[10]; Dosage 5 kg/ha
  Foliar spray L (herbicidal effect rating): 6
maize, Zea mays [11]; Dosage 1 kg/ha
  Foliar spray Mz (herbicidal effect rating): 4
maize, Zea mays [11]; Dosage 5 kg/ha
  Foliar spray Mz (herbicidal effect rating): 6
mustard, Sinapsis alba [12]; Dosage 1 kg/ha
  Foliar spray M (herbicidal effect rating): 3
mustard, Sinapsis alba [12]; Dosage 5 kg/ha
  Foliar spray M (herbicidal effect rating): 6
oat, Avena sativa [13]; Dosage 1 kg/ha
  Foliar spray O (herbicidal effect rating): 3
oat, Avena sativa [13]; Dosage 5 kg/ha
  Foliar spray O (herbicidal effect rating): 5
rice, Oryza sativa [14]; Dosage 1 kg/ha
  Foliar spray R (herbicidal effect rating): 2
rice, Oryza sativa [14]; Dosage 5 kg/ha
  Foliar spray R (herbicidal effect rating): 5
Soya bean, Glycine max [15]; Dosage 1 kg/ha
  Foliar spray S (herbicidal effect rating): 1
Soya bean, Glycine max [15]; Dosage 5 kg/ha
  Foliar spray S (herbicidal effect rating): 3
[16]; Dosage 1 kg/ha
  Foliar spray SB (herbicidal effect rating): 5
[16]; Dosage 5 kg/ha
  Foliar spray SB (herbicidal effect rating): 7
[17]; Dosage 1 kg/ha
  Pre-emergence BG (herbicidal effect rating): 4
[17]; Dosage 5 kg/ha
  Pre-emergence BG (herbicidal effect rating): 7
[18]; Dosage 1 kg/ha
  Pre-emergence L (herbicidal effect rating): 5
[18]; Dosage 5 kg/ha
  Pre-emergence L (herbicidal effect rating): 8
maize, Zea mays [19]; Dosage 1 kg/ha
  Pre-emergence Mz (herbicidal effect rating): 4
maize, Zea mays [19]; Dosage 5 kg/ha
  Pre-emergence Mz (herbicidal effect rating): 8
mustard, Sinapsis alba [20]; Dosage 1 kg/ha
  Pre-emergence M (herbicidal effect rating): 2
mustard, Sinapsis alba [20]; Dosage 5 kg/ha
  Pre-emergence M (herbicidal effect rating): 4
oat, Avena sativa [21]; Dosage 1 kg/ha
  Pre-emergence O (herbicidal effect rating): 4
oat, Avena sativa [21]; Dosage 5 kg/ha
  Pre-emergence O (herbicidal effect rating): 6
rice, Oryza sativa [22]; Dosage 1 kg/ha
  Pre-emergence R (herbicidal effect rating): 2
rice, Oryza sativa [22]; Dosage 5 kg/ha
  Pre-emergence R (herbicidal effect rating): 5
Soya bean, Glycine max [23]; Dosage 1 kg/ha
  Pre-emergence S (herbicidal effect rating): 0
Soya bean, Glycine max [23]; Dosage 5 kg/ha
  Pre-emergence S (herbicidal effect rating): 0
[24]; Dosage 1 kg/ha
  Pre-emergence SB (herbicidal effect rating): 4
[24]; Dosage 5 kg/ha
  Pre-emergence SB (herbicidal effect rating): 8

## CC(C)C1(C)NC(c2cc3c(cc2C(=O)O)OCO3)=NC1=O (stereo not drawn) [Example 7, 2-(5-isopropyl-5-methyl-4-oxo-2-imidazolin-2-yl)-[1,3]-dioxolo [4,5-d]benzoic acid]
[9]; Dosage 1 kg/ha
  Foliar spray BG (herbicidal effect rating): 5
[9]; Dosage 5 kg/ha
  Foliar spray BG (herbicidal effect rating): 6
[10]; Dosage 1 kg/ha
  Foliar spray L (herbicidal effect rating): 3
[10]; Dosage 5 kg/ha
  Foliar spray L (herbicidal effect rating): 4
maize, Zea mays [11]; Dosage 1 kg/ha
  Foliar spray Mz (herbicidal effect rating): 2
maize, Zea mays [11]; Dosage 5 kg/ha
  Foliar spray Mz (herbicidal effect rating): 3
mustard, Sinapsis alba [12]; Dosage 1 kg/ha
  Foliar spray M (herbicidal effect rating): 7
mustard, Sinapsis alba [12]; Dosage 5 kg/ha
  Foliar spray M (herbicidal effect rating): 7
oat, Avena sativa [13]; Dosage 1 kg/ha
  Foliar spray O (herbicidal effect rating): 1
oat, Avena sativa [13]; Dosage 5 kg/ha
  Foliar spray O (herbicidal effect rating): 2
rice, Oryza sativa [14]; Dosage 1 kg/ha
  Foliar spray R (herbicidal effect rating): 2
rice, Oryza sativa [14]; Dosage 5 kg/ha
  Foliar spray R (herbicidal effect rating): 3
Soya bean, Glycine max [15]; Dosage 1 kg/ha
  Foliar spray S (herbicidal effect rating): 0
Soya bean, Glycine max [15]; Dosage 5 kg/ha
  Foliar spray S (herbicidal effect rating): 4
[16]; Dosage 1 kg/ha
  Foliar spray SB (herbicidal effect rating): 6
[16]; Dosage 5 kg/ha
  Foliar spray SB (herbicidal effect rating): 7
[17]; Dosage 1 kg/ha
  Pre-emergence BG (herbicidal effect rating): 3
[17]; Dosage 5 kg/ha
  Pre-emergence BG (herbicidal effect rating): 7
[18]; Dosage 1 kg/ha
  Pre-emergence L (herbicidal effect rating): 3
[18]; Dosage 5 kg/ha
  Pre-emergence L (herbicidal effect rating): 7
maize, Zea mays [19]; Dosage 1 kg/ha
  Pre-emergence Mz (herbicidal effect rating): 1
maize, Zea mays [19]; Dosage 5 kg/ha
  Pre-emergence Mz (herbicidal effect rating): 6
mustard, Sinapsis alba [20]; Dosage 1 kg/ha
  Pre-emergence M (herbicidal effect rating): 4
mustard, Sinapsis alba [20]; Dosage 5 kg/ha
  Pre-emergence M (herbicidal effect rating): 7
oat, Avena sativa [21]; Dosage 1 kg/ha
  Pre-emergence O (herbicidal effect rating): 0
oat, Avena sativa [21]; Dosage 5 kg/ha
  Pre-emergence O (herbicidal effect rating): 5
rice, Oryza sativa [22]; Dosage 1 kg/ha
  Pre-emergence R (herbicidal effect rating): 8
rice, Oryza sativa [22]; Dosage 5 kg/ha
  Pre-emergence R (herbicidal effect rating): 9
Soya bean, Glycine max [23]; Dosage 1 kg/ha
  Pre-emergence S (herbicidal effect rating): 0
Soya bean, Glycine max [23]; Dosage 5 kg/ha
  Pre-emergence S (herbicidal effect rating): 1
[24]; Dosage 1 kg/ha
  Pre-emergence SB (herbicidal effect rating): 7
[24]; Dosage 5 kg/ha
  Pre-emergence SB (herbicidal effect rating): 8
